Calls of active or inactive are those of the source. The calls are words filed in the database; no cut-off is given here.
What was measured:
[1] = target: Oxysterols receptor LXR-beta (Homo sapiens) (UniProt P55055); test: Agonist activity at Gal4-fused full length LXRbeta LBD (unknown origin) transfected in HEK293T cells co-transfected with pG5luc reporter and Renilla-luc at 0.1 to 1 uM incubated for 12 hrs by luciferase reporter gene assay; type: cell-based; conditions: dose 0.1-1 µM
[2] = target: Oxysterols receptor LXR-alpha (Homo sapiens) (UniProt Q13133); test: Agonist activity at Gal4-fused full length LXRalpha LBD (unknown origin) transfected in HEK293T cells co-transfected with pG5luc reporter and Renilla-luc at 0.1 to 1 uM incubated for 12 hrs by luciferase reporter gene assay; type: cell-based; conditions: dose 0.1-1 µM
Jurkat = test: Induction of cell differentiation in human Jurkat cells at 0.5 uM incubated for 6 days by CD11b staining based flow cytometric analysis; type: functional; conditions: time 6.0 day
NB-4 [3] = test: Cell cycle arrest in human NB4 cells assessed as accumulation of cells at G2/M phase at 0.5 uM incubated for 6 days for DAPI staining based flow cytometric analysis (reference value: 15 %); type: functional; conditions: time 6 day
NB-4 [4] = test: Induction of apoptosis in human NB4 cells assessed as increase in cleaved-PARP expression at 2 uM incubated for 3 to 24 hrs by Western blot analysis; type: functional, cell-based; conditions: time 3-24 hrs
[5] = Induction of apoptosis in human ATRA-resistant NB4-LR2 cells assessed as viable cells at 1 uM incubated for 24 hrs by Annexin V-FITC/PI staining based flow cytometric analysis (reference value: 87.30 %); type: functional; conditions: read-out: Activity
NB4 = test: Induction of PML-RARalpha degradation in human NB4 cells at 0.5 uM incubated for 6 days by Western blot analysis; type: cell-based; conditions: time 6.0 day
[6] = target: T1, Retinoic acid receptor RXR-beta (Homo sapiens) (UniProt P28702); test: Competitive binding affinity to Gal4-fused full length RXRbeta LBD (unknown origin) transfected in HEK293T cells co-transfected with pG5luc reporter and Renilla-luc assessed as inhibition of 9-cis-RA induced transactivation at 0.1 to 1 uM incubated for 12 hrs by luciferase reporter gene assay; type: cell-based; conditions: dose 0.1-1 µM
T1 sequence (whole entry): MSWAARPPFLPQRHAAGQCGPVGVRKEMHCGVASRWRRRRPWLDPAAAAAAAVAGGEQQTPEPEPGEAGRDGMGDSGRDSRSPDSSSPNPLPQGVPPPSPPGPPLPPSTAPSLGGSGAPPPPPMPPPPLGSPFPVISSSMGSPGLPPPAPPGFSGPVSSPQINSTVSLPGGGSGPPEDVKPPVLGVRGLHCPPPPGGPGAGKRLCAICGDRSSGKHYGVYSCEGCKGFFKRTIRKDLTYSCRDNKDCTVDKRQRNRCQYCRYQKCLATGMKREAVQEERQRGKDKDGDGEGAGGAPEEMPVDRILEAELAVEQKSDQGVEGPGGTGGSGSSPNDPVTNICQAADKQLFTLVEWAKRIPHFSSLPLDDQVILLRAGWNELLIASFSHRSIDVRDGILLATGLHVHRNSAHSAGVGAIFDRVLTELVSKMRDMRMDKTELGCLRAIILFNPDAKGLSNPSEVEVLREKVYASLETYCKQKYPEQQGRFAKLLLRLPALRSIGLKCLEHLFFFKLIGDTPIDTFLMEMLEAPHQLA

K562 [7] = test: Induction of apoptosis in human K562 cells assessed as early apoptotic cells at 2 uM incubated for 24 hrs by Annexin V-FITC/PI staining based flow cytometric analysis (reference value: 0.91 %); type: functional
NB-4 [8] = test: Induction of cell differentiation in human NB4 cells assessed as morphological changes at 0.5 uM incubated for 6 days by Wright-Giemsa staining based analysis; type: functional; conditions: time 6.0 day
NB-4 [9] = test: Induction of mitosis in human NB4 cells assessed as upregulation of pS10-histone expression at 2 uM measured after 3 hrs by Western blot analysis; type: functional, cell-based
[10] = target: T2, Retinoic acid receptor gamma (Homo sapiens) (UniProt P13631); test: Agonist activity at Gal4-fused full length human RARgamma LBD transfected in HEK293T cells co-transfected with pG5luc reporter and Renilla-luc assessed as transactivation by measuring maximal efficacy incubated for 12 hrs by dual luciferase reporter gene assay relative to control; type: cell-based
T2 sequence (whole entry): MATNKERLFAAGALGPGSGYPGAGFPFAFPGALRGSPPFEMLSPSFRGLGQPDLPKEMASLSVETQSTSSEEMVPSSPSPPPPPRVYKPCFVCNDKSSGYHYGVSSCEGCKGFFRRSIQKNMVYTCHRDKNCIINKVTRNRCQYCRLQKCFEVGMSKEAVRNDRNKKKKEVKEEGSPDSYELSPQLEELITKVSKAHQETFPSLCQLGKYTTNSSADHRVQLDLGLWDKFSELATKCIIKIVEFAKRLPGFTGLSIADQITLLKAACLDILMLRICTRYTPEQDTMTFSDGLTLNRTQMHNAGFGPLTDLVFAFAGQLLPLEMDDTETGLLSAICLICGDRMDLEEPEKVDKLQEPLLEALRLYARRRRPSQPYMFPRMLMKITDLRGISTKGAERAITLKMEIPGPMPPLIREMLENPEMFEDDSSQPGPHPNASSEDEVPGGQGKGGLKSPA

K562 [11] = test: Induction of apoptosis in human K562 cells assessed as viable cells at 2 uM incubated for 24 hrs by Annexin V-FITC/PI staining based flow cytometric analysis (reference value: 90.02 %); type: functional; conditions: read-out: Activity
[12] = target: T1, Retinoic acid receptor RXR-beta (Homo sapiens); test: Agonist activity at Gal4-fused full length RXRbeta LBD (unknown origin) transfected in HEK293T cells co-transfected with pG5luc reporter and Renilla-luc at 0.1 to 1 uM incubated for 12 hrs by luciferase reporter gene assay; type: cell-based; conditions: dose 0.1-1 µM
HEK293T [13] = test: Agonist activity at full length RARalpha LBD R276E mutant (unknown origin) transfected in HEK293T cells co-transfected with pG5luc reporter and Renilla-luc at 1 uM incubated for 12 hrs by luciferase reporter gene assay; type: cell-based; conditions: Homo sapiens
[14] = target: Estrogen receptor (Homo sapiens) (UniProt P03372); test: Agonist activity at Gal4-fused full length ERalpha LBD (unknown origin) transfected in HEK293T cells co-transfected with pG5luc reporter and Renilla-luc at 0.1 to 1 uM incubated for 12 hrs by luciferase reporter gene assay; type: cell-based; conditions: dose 0.1-1 µM
K562 [15] = test: Induction of apoptosis in human K562 cells assessed as early apoptotic cells at 1 uM incubated for 24 hrs by Annexin V-FITC/PI staining based flow cytometric analysis (reference value: 0.91 %); type: functional
NB-4 [16] = test: Induction of mitosis in human NB4 cells assessed as upregulation of pT210-PLK1 expression at 2 uM measured after 3 hrs by Western blot analysis; type: functional, cell-based
HEK293T [17] = test: Agonist activity at 3-Flag-tagged PML-RARalpha/HA-tagged RXRalpha (unknown origin) transfected in HEK293T cells co-transfected with pGL3-beta-RARE and Renilla-luc assessed as increase in transcriptional activity at 1 uM incubated for 12 hrs by luciferase reporter gene assay relative to ATRA; type: cell-based; conditions: Homo sapiens, filed as agonist
HeLa = test: Induction of 3-flag-tagged PML-RARalpha R276E mutant (unknown origin) degradation transfected in human HeLa cells at 1 to 2 uM incubated for 24 hrs by Western blot analysis; type: cell-based; conditions: dose 1-2 µM
[18] = Induction of apoptosis in human ATRA-resistant NB4-LR2 cells assessed as early apoptotic cells at 1 uM incubated for 24 hrs by Annexin V-FITC/PI staining based flow cytometric analysis (reference value: 5.38 %); type: functional

Chain of Oxysterols receptor LXR-beta (Homo sapiens) (P55055 whole entry, the tested form may be a part): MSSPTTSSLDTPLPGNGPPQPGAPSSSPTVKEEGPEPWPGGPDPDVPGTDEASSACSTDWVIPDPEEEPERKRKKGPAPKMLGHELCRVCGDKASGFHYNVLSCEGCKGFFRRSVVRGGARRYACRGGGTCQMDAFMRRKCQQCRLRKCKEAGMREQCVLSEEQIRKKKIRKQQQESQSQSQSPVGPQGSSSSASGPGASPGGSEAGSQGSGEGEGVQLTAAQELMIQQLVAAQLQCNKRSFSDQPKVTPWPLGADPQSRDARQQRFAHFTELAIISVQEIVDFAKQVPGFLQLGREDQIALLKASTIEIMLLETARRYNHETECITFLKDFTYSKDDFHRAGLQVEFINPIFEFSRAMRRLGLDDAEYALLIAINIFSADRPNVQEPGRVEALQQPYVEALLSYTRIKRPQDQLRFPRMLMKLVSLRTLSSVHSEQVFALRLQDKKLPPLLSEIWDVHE
Chain of Oxysterols receptor LXR-alpha (Homo sapiens) (Q13133 whole entry, the tested form may be a part): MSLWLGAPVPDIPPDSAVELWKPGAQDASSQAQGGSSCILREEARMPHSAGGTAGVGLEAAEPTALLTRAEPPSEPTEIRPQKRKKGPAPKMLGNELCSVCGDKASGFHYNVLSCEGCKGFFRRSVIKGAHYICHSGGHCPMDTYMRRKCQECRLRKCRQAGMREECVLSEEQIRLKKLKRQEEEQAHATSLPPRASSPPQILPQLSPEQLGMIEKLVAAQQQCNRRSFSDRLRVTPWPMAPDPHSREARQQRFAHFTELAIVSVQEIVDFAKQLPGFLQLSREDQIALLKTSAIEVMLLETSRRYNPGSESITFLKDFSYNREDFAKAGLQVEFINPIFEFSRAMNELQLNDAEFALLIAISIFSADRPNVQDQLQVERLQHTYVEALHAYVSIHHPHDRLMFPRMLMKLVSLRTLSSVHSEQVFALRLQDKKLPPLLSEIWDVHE
Chain of Estrogen receptor (Homo sapiens) (P03372 whole entry, the tested form may be a part): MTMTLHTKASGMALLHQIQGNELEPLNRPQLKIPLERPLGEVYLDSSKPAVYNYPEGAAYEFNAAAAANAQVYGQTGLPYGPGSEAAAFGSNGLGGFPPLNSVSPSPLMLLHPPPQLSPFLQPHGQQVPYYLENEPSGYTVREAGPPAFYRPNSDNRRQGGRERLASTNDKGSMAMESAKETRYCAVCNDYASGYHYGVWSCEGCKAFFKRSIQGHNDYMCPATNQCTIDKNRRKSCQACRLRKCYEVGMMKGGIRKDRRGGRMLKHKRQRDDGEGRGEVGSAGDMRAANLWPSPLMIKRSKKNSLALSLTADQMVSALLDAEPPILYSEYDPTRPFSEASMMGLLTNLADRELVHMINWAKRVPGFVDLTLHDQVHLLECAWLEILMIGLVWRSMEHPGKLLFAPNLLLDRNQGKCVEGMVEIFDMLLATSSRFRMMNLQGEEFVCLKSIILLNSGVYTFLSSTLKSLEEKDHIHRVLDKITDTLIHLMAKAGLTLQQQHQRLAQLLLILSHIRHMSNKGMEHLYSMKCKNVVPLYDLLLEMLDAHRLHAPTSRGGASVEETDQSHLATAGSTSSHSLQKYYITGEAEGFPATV

Activity [1]	Activity [2]	Activity [6]	Emax [10] [%]	Activity [12]	Activity [14]	SMILES	Activity (Jurkat)	Activity (NB-4 [3]) [%]	Activity (NB-4 [4])	viability at 1 µM [5] [%]	Activity (NB4)	Activity (K562 [7]) [%]	Activity (NB-4 [8])	Activity (NB-4 [9])	viability at 2 µM (K562 [11]) [%]	Activity (HEK293T [13])	Activity (K562 [15]) [%]	Activity (NB-4 [16])	Activity (HEK293T [17]) [%]	Activity (HeLa)	further results
Minimal_effect	Minimal_effect	Weak_effect	2	Weak_effect	Minimal_effect	Cc1cc2c(cc1C(=O)/C(Br)=C\c1ccc(C(=O)O)cc1)C(C)(C)CCC2(C)C	inactive	14	Active	67.8	Active	1.05	Active	Active	88.8	inactive	0.71	Active	> 70	inactive	Activity [18]: 20.24%
Minimal_effect	Minimal_effect	Weak_effect	15	Weak_effect	Minimal_effect	Cc1cc2c(cc1C(=O)/C(Br)=C/c1ccc(C(=O)O)cc1)C(C)(C)CCC2(C)C	inactive	13	Active	56.2	Active	1.18	Active	Active	88.6	inactive	1	Active	> 70	inactive	Activity [18]: 29.03%

From ChEMBL document CHEMBL6134780, “Halogenated retinoid derivatives as dual RARα and RXRα modulators for treating acute promyelocytic leukemia cells” (Eur J Med Chem, 2024)
